Data on five molecules can be found in patent US20120214186A1, “METHODS AND COMPOSITIONS FOR DETECTING AND QUANTIFYING sAPPbeta” (priority 2006, published 2012).

Molecules are shown by their SMILES.

Data set [1] concerns the target T1, BACE1 (Homo sapiens, UniProt P56817).
T1 construct: expressed in transfected cells
Briefly: Cell-based BACE1 assay (sAPPβ ELISA-SEAP), SY5Y-BACEGFP-SEAPAPPwt stable cells. The note with it: 6 hours, 96-well; TAPI-2 100 mM, BACE inhibitor IV 5 mM, AEBSF 500 mM, Cpd E 20 nM. As for the experimental part: […] cells expressing BACEGFP and SEAPAPPwt were grown on standard cell culture plates in DMEM (Invitrogen) supplemented with 10% fetal bovine serum, 1% Pen/Strep/Glutamine, and 250 μg/ml zeocin. SEAPAPPwt is cleaved by BACE1 (β-secretase) as well as a secretase to release large extracellular fragments sAPPβ and sAPPα, respectively. Cell culture media containing these fragments was harvested and SEAP-sAPPβ was captured using 96-well plates coated with the sAPPβ specific antibody (sβwt). The ELISA plate was then incubated with the fluorescent alkaline phosphatase substrate 4-MUP (Sigma) at a final concentration of 30 μM (in 100 mM glycine, 1 mM MgCl2, 1 mM ZnCl2 at pH 9.8) for 1 hour before detection (excitation: 360 nm, emission: 449 nm).
SY5Y-BACEGFP-SEAPAPPwt stable cells were grown to 100% confluence on 96-well plates in quadruplicate and incubated for 6 hours with DMSO, TAPI-2 ([…]), RACE inhibitor IV ([…]), AEBSF ([…]), or Cpd E (20 nM) in […] of conditioned media (DMEM (invitrogen) supplemented with 10% fetal bovine serum, 1% Pen/Strep/Glutamine, and 250 μg/ml zeocin).
A sAPPβ ELISA-SEAR assay was conducted using […] of media.
Media was collected after 6 hrs incubation and […] was used in the BACE1 assay as described above.

Data set [2] has as its system SY5Y-BACEGFP-SEAPAPPwt stable cells. Particulars: at concentrations used; data not shown.
Data set [3] concerns HEK293-APPNFEV cells. The note with it: read-out: reported IC50; cited from earlier work.
For data set [4] the following is noted: p-glycoprotein inhibitor required to increase transport; cited from earlier work.
Data set [5] concerns the target T2, BACE1 (Mus musculus, UniProt P56818).
T2 construct: host or cells: mouse model of AD
Particulars: mouse model of AD; cited from earlier work.

T1 sequence (P56817 46-501): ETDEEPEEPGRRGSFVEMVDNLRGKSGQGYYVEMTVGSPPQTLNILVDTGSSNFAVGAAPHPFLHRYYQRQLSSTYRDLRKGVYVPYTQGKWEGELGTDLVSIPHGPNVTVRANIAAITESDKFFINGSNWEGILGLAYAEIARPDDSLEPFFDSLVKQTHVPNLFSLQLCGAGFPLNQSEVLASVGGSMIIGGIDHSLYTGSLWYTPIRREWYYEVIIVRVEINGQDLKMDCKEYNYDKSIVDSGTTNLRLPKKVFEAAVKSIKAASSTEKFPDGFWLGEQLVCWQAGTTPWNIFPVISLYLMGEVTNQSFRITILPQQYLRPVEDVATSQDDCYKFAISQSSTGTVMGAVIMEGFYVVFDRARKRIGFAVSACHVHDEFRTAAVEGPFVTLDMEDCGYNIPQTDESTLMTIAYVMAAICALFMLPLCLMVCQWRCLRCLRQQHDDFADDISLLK
T2 sequence (P56818 46-501): as the sequence (P56817 46-501) above, with P6S, V162I, L165I, S180T, V182A, I340V, L393A, Q443H counted along it

As for `NCCc1ccc(S(=O)(=O)F)cc1` [AEBSF], the “effect on sAPPβ” value in data set [1] was “dramatically reduced”. Besides, the cellular toxicity entry in data set [2] was “do not exhibit significant cellular toxicity”.

Turning to `C[C@H](NC(=O)Cc1cc(F)cc(F)c1)C(=O)N[C@H]1N=C(c2ccccc2)c2ccccc2N(C)C1=O` [CpdE], the “effect on sAPPβ” value in data set [1] is “no effect”.

For `C[C@@H](NC(=O)c1cc(C(=O)N[C@@H](Cc2ccccc2)[C@H](O)CNC2CC2)cc(N(C)S(C)(=O)=O)c1)c1ccccc1` [BACE inhibitor IV], in data set [3], the IC50 was 29 nM. The cellular toxicity entry in data set [2] is reported as “do not exhibit significant cellular toxicity”.

On to `CCNc1cc(C(=O)N[C@@H](Cc2ccccc2)[C@H](O)CNCc2cccc(C(F)(F)F)c2)c(F)c(N2CCCCS2(=O)=O)c1` [GSK188909], for which the brain penetration result in data set [4] is recorded as “low brain penetration”. Further, the in vivo efficacy entry in data set [5] was “in vivo efficacy”.

Regarding `CC(C)C[C@H](CC(=O)NO)C(=O)N[C@H](C(=O)N[C@@H](C)C(=O)NCCN)C(C)(C)C` [TAPI-2], the “effect on sAPPβ” value in data set [1] was “no effect”.

As a reminder, the IC50 is the concentration that gives 50% inhibition.
